Assay results reported in patent publication US10662214B2, “Compound of 4′-thionucleoside, as well as preparation method therefor, pharmaceutical composition thereof and application thereof” (Sichuan Kelun-Biotech Biopharmaceutical Co., Ltd., priority 2015, dated 2020).
Entries after “also recorded” stand apart in the source; their conditions may differ.

What was measured:
[1] = test system: colorectal cancer cell HCT-116; test: CCK-8 inhibition of proliferation, HCT-116; type: cell-based, human
Method: The tumor cell lines employed in the present experiment were gastric cancer cell NCI-N87 (obtained from Guangzhou Jennio Biological Technology Co., Ltd.), colorectal cancer cell HCT-116 (obtained from Chengdu Center for Safety Evaluation of Drugs), colorectal cancer cell HCT-15 and pancreatic cancer cell BxPC-3 (both obtained from ATCC, US).
Each of the cell lines is cultured in a corresponding culture medium (RPMI-1640, IMDM and L-15 culture medium (manufacturer: Gibco)) supplemented with 10% heat inactivated Fetal Bovine Serum (manufacturer: Sigma), in an incubator at 37° C. and 5% CO2.
For each type of tumor cells, a blank group, a vehicle group (containing 1‰ DMSO) and 8 groups with a test compound at concentrations of 5 nM, 10 nM, 50 nM, 100 nM, 500 nM, 1000 nM, 5000 nM, and 10000 nM (with each concentration in triplicate) were set. […]
The experiment was performed according to a CCK-8 method as described below. […] OD values at two wavelengths (Detection wavelength: 450 nm, and reference wavelength: 650 nm) were determined on a multifunctional fully-automatic microplate reader.
The inhibitory rate of tumor cell growth was calculated according to the following formula: Inhibitory rate=[(ODvehicle−ODblank)−(ODdrug−ODblank)]/(ODvehicle−ODblank)*100%
Based on the inhibitory rate, a concentration-inhibitory rate curve was fit using GraphPad prism 5.0 software, and IC50 was calculated.

[2] = test system: human pancreatic cancer cell BxPC-3; test: Subcutaneous xenograft of human pancreatic cancer cell BxPC-3 in a nude mouse (Experimental example 4); type: in vivo
Method: According to methods similar to those in sections 1 to 3 in Experimental example 2, pancreatic cancer cell BxPC-3 was cultured as a monolayer in vitro, and inoculated; the animals were randomized into groups; and samples were prepared.
Mice bearing a tumor having a volume of 80-250 mm^3 were selected, and randomized into 6 groups (8 mice per group). The dosing volume was 10 mL/kg.
For statistical calculations of the test indexes, please refer to Experimental example 2.
The test results obtained by administrating (intravenous administration (i.v.) or oral administration (p.o.)) once a week for 3 weeks are shown in table 7-2.

In the case of CC(C)OC(=O)[C@H](C)N[P@](=O)(OC[C@H]1S[C@@H](n2ccc(N)nc2=O)[C@@H](F)[C@@H]1O)Oc1ccccc1 [Compound C8, (S)-isopropyl 2-(((S)-(((2R,3S,4S,5R)-5-(4-amino-2-oxopyrimidin-1(2H)-yl)-4-fluoro-3-hydroxytetrahydrothiophen-2-yl)methoxy)(phenoxy)phosphoryl)amino)propanoate], the “inhibitory effect on colorectal cancer cell HCT-116 (in words)” value ([1]; FIG. 1: 5-10000 nM) is reported as “potent inhibitory effects; also recorded: excellent inhibitory effects”, the IC50 ([1]; Homo sapiens, HCT-116, CCK-8, 72 h incubation) is reported as 485 nM and the “TGI (%)” value ([2]; 0.06 mmol/kg p.o., twice a week for 3 weeks) is reported as 47.7%. The “TGI (%)” value ([2]; 0.12 mmol/kg p.o., twice a week for 3 weeks) was 53.2% and the “TGI (%)” value ([2]; 0.23 mmol/kg p.o., once a week for 3 weeks) was 51.0%.
